The text below walks through data of US10857236B2, “Sustained release nanocomposite, a process for producing the same and use thereof” (SZEGEDI TUDOMÁNYEGYETEM, priority 2015, dated 2020).

Data set [1] can be described thus: stability study of KYNA in MQ with and without 150 mM NaCl and in buffer. To be noted: pH 7.4. Here is the method:
New types of nanocomposites have been prepared within physiological conditions, in the nano-size range for the purpose of crossing the pharmaceutically active ingredients through the blood-brain barrier. […] The amount of the material constituting the composites, than the conditions of the preparation were determined. Stability studies were performed for the active ingredients by ensuring various conditions (pH=3 to 8 in physiological solution and without said physiological solution, in both phosphate and HEPES buffers). […]
The release tests were made in case of KYNA in PBS buffer at pH=7.4. (physiological solution). […]

Data set [2] can be described thus: in vitro drug release in Franz cell (vertical diffusion cell), kinetic models. Type of data set: physicochemical. Particulars: IBU containing composites. Here is the method:
FIG. 7: A schematic figure of the Franz-cell (vertical diffusion cell) with which the in vitro drug release experiments were carried out. […] The active ingredient release tests were made at two temperatures: at 25 and 37.5° C. (FIGS. 7 and 8).

In data set [3] the test system is somatosensory evoked potentials (SEPs). Briefly: in vivo amplitudes of somatosensory evoked potentials after peripheral administration. Set-up: species or system male Wistar rats. Particulars: intraperitoneal administration, 300 mg/kg, n=5. The text has this:
The preparation of the corresponding composite (FIG. 1) was accomplished with the following parameters. […] At a neutral pH the compact structure of the protein offers an opportunity to enclose large amount of kynurenic acid. In the “heart shaped” conformation of the BSA, the hydrophobic parts directed inside the conformation can form hydrogen-bridge, hydrophobic, furthermore ππ interactions with the KYNA molecule. […] After the in vitro drug release experiments the KYNA permeability was investigated with the help of an in vitro blood-brain barrier model. […] The animal experiments were performed on male Wistar rats (300 g, n=30). During the tests the effect of the peripherally administered KYNA was investigated in the central nervous system.

Data set [4] concerns microvessel rat brain endothelial cells. In words: KYNA permeability in in vitro blood-brain barrier model. Type of data set: in vitro ADME. Particulars: 20 μM KYNA final concentration, 1 hour, corrected for empty filters. Here is the method:
The permeability of KYNA through the blood-brain barrier from BSA/KYNA/PAH nanocapsules was determined by means of an in vitro blood-brain barrier model. The description of the model is the following: microvessel rat brain endothelial cells were isolated from 2 to 3 weeks old Wistar animals by means of a method described earlier (Wilhelm és munkatársai, 2011). After the removal of the meninges, the brain tissue was dissectioned to small pieces, then it was digested by type 2 collagenase and collagenase/dispase, finally it was centrifuged on percoll gradient. The microvessel fragments were plated on collagenIV/fibronectin-coated Petri dishes and were cultured in DMEM/F12 in the presence of plasma serum and growth factors. […]
From these samples the concentration of KYNA was determined using an Agilent 1100 HPLC-MS system (Agilent Technologies, Santa Clara, Calif., USA).
To calculate the permeability coefficient the following formulae were applied: PappdQ/(dT×A×C0), wherein dQ stands for the crossed amount of the material, dT stands for the incubation period of time (1 hour), A stands for the surface of the filter and C0 stands for the starting concentration (20 μM). The values thus calculated were compared to the values measured on empty (not containing cells) filters according to the following method: […]).

`NCCc1ccc(O)c(O)c1` [DOPA, dopamine]: in data set [1], the demonstrated stability until stood at 72 h.

As for `CC(C)Cc1ccc(C(C)C(=O)O)cc1` (stereo not drawn) [IBU, ibuprofen], in data set [2] (25° C.), the “Release rate, depending on the concentration, first-order kd” value was found to be 0.0064 s⁻¹; the “Release rate, diffusion controlled, Higuchi kd” value was 5.6 * 10^−0 s^−1/2; the “Release rate, not depending on the concentration, zero-order kd” value was 0.5 s⁻¹. Besides, in data set [2] (37.5° C.), the “Release rate, depending on the concentration, first-order kd” value is 0.011 s⁻¹; the “Release rate, diffusion controlled, Higuchi kd” value was 8.7 * 10^−0 s^−1/2; the “Release rate, not depending on the concentration, zero-order kd” value is 0.77 s⁻¹.

Turning to `Nc1ccccc1C(=O)C[C@H](N)C(=O)O` [L-KYN, L-kynurenin], in data set [3], the “change of amplitude of somatosensory evoked potentials” value is “no significant change”.

For `O=C([O-])c1ccccc1-c1c2ccc(=O)cc-2oc2cc([O-])ccc12.[Na+].[Na+]` [Na-fluoresceine], in data set [4], the “permeability coefficient Pe” value is on record as 2.96*10^−6 cm/s.
